A short description of experiment [1]: Hypocretin via ventricular injection (osmotic minipump): running wheel activity and body weight. Particulars: third ventricle minipump, about 0.03 to about 600 μg/kg/day, vs control and untreated animals. The experiment is classed as in vivo, rat. The text has this: The effect of hypocretin administration on the body weight of a normal rat or other rodent is investigated. The study includes ten animals in the experimental group, ten animals in the control group, and ten animals in the untreated group. […] Animals in the experimental and control groups are fitted with an Alzet Model 2004 osmotic minipump (Alza). The minipump delivers solution to the third ventricle of the brain, adjacent to the hypothalamus, for a one to six month period. The experimental group receives hypocretin peptide continuously at dosing regimes of about 0.03 μg/kg/day to about 600 μg/kg/day. The control group receives diluent. Animals in all groups are provided with a running wheel and customary rat chow is available ad libitum. Each animal is weighed daily (or another sign of excess body weight is measured), and the running wheel activity for each animal is recorded.

Experiment [2] is described as follows: Hypocretin via jugular catheter/osmotic minipump: running wheel activity and body weight. The experiment is classed as in vivo, rats. The note with it: about 0.03 to about 600 μg/kg/day, vs control and untreated animals. The method, then:
The effect of administration of hypocretin-1 or other agonists of the hypocretin receptors on rats is investigated. The study includes ten animals in the experimental group, ten animals in the control group, and ten animals in the untreated group. […] Animals in the experimental and control groups receive a jugular catheter implant attached to an osmotic minipump. The experimental group receives hypocretin-1 or other agonist at dosing regimes of about 0.03 μg/kg/day to about 600 μg/kg/day. The control group receives diluent. Animals in all groups are provided with a running wheel and customary rat chow is available ad libitum. Each animal is weighed daily (or another sign of excess body weight is measured), and the running wheel activity for each animal is recorded.

Experiment [3] is described as follows: Motor activity (actigraph) after Hcrt-1 injection. The experiment is classed as in vivo. As for the experimental part: FIG. 1. Acute changes in motor activity after Hcrt-1 administration. (a) A representative actigraph record (5 minute bins) showing the activity level during the 2 hr period following Hcrt-1 (3 μg/kg) and normal saline. Hcrt-1 produced an increase in motor activity within 5 minutes of injection that persisted for 60 minutes. […] In (b) values are mean±SE, *p<0.05; **p<0.01, Newman-Keuls test.
The motor or muscular activity level of the individual can be measured by a variety of means. Motor activity levels may be directly observed and measured by clinicians, or the individual may themselves measure their activity level which typically includes body movement or locomotion. The monitoring can include maintaining a log of activity, including intensity and duration of the activity. An actigraph device, or activity monitor, may be used. An actigraph detects activity by sensing motion via an internal accelerometer. It is a small lightweight instrument that can be worn, for example, on the wrist, waist, or ankle to record physical activity. Actigraphs are often used to estimate energy expenditure or to study motion in an individual, as described in Example 4 and shown in FIG. 1.
The differences in amplitude of motor activity following hypocretin and saline injection diminished over the following 60 minutes (FIGS. 1a, 1b).

The nature of experiment [4]: Activity of hypocretin in obese humans: wrist actigraph and body weight. The note with it: about 0.03 to about 600 μg/kg/day for four weeks, vs placebo control group. Format: in vivo. The text has this: Hypocretin or hypocretin agonist is submitted to safety testing following usual Food and Drug Administration (FDA) requirements. Afterward, the effect of administration of hypocretin or hypocretin agonist on obese humans is investigated. The study includes ten humans in the experimental group and ten humans in the control group. Humans in the experimental and control groups receive administration by intranasal inhalant, or by transdermal or other means. The experimental group receives hypocretin or hypocretin agonist at dosing regimes of about 0.03 μg/kg/day to about 600 μg/kg/day for a period of four weeks. The control group receives a placebo. Activity levels of the humans in both groups are measured with a wrist actigraph, and each human is weighed daily (or another sign of excess body weight is measured).
Each animal is weighed daily, and the running wheel activity for each animal is recorded.

In another experiment the test system is Hcrt-1 antiserum. The experiment is described as follows: Solid-phase radioimmunoassay (RIA) for Hcrt-1. Particulars: competition with 125I-labeled Hcrt-1 for immobilized antiserum. The experiment is classed as binding. The method, then: FIG. 2. The protocol for a sequential multiple antigen radioimmunoassay for hypocretin-1 (Hcrt-1) and hypocretin-2 (Hcrt-2). Sample or standard is loaded into wells onto which antiserum for Hcrt-1 has been pre-adsorbed via protein-A Subsequently, radiolabeled Hcrt-1 (Hcrt-1*) is added to the wells. Competition for the antiserum then ensues between Hcrt-1 and Hcrt-1*. The contents of the wells are then transferred to new wells onto which antiserum for Hcrt-2 has been preadsorbed and the procedure repeated but with radiolabeled Hcrt-2 (Hcrt-2*). The previous wells are washed and counted for bound radioactivity. […]
Furthermore, sensitivity is increased over that obtained with more traditional methods using identical antibodies and assay volumes. […] For example, the individual wells of a 96-well plate containing Ab-bound tracer peptide are then physically separated and counted in a gamma counter. […]
The Hcrt-1, iodinated Hcrt-1, and Hcrt-1 antiserum were obtained from Phoenix Pharmaceuticals, Inc. (530 Harbor Blvd, Belmont, Calif.). […] This enables direct reading of radioactivity in a Top Count plate reader (Packard) without the requirement to separate out individual wells. […]
Prior to RIA, Hcrt-1 is extracted from the CSF or plasma sample. […] The eluant is then dried down and re-suspended in RIA buffer ready for assay. […]

The mark [5] stands for this setting: Hcrt-1 3 μg/kg vs normal saline, actigraph record.

From patent US7662780B2, “Administering hypocretin to obese individuals” (The Regents of the University of California, priority 2003, dated 2010) come the findings set out here.

Where no end group is shown, it is not given here. A value given as a limit tells only on which side of the number the result lay.

In the case of hypocretin, in experiment [1], the running wheel activity entry is given as “increased running wheel activity” and the weight gain entry is “decreased weight gain”. For the same substance, in experiment [2], the running wheel activity result is “increased running wheel activity” and the weight gain result is given as “decreased weight gain”. Further, the motor activity entry in experiment [3] (first 30 minutes after injection, vs saline injection) is recorded as “increased motor activity”. Also, in experiment [4], the “activity levels (wrist actigraph)” value is “increased activity levels” and the weight loss entry is “greater weight loss”.
On to “hypocretin-1 (QPLPDCCRQKTCSCRLYELLHGAGNHAAGILTL; ends and bridges not checked; cysteine pairing not given here; UniProt O43612 34-66, looked up) [Hcrt-1, hypocretin neuropeptide derived from prepro-hypocretin; human orexin-A is reported as a 33 residue peptide of 3562 Da]”, for which, in the experiment with Hcrt-1 antiserum, the “IC50 value for this Hcrt-1 assay” value came out at 2 fmol. In experiment [3] (0-30 and 30-60 minutes after administration, Newman-Keuls test), the “increase of motor activity as compared to saline control” value is recorded as “statistically significant”. In addition, in experiment [3] (setting [5]), the “onset of increase in motor activity after injection” value is not above 5 min and the “persistence of increase in motor activity” value came to 60 min.
